In brackets after ≈: the same amount, converted by molar mass. Several values for one entry are separate records, joined by “and”; a condition that tells them apart may be missing. Identical values can stand only once. Like-named read-outs stand apart in the source and are kept apart here.
How the values were obtained:
MDA-MB231 = test: NCI single-dose growth inhibition screen; format: cell-based; conditions: Homo sapiens, MDA-MB-231; Breast Cancer MDA-MB231; single dose 10^−5 M
EKVX = test: NCI single-dose growth inhibition screen; format: cell-based; conditions: Homo sapiens; Non-Small Cell Lung Cancer EKVX; single dose 10^−5 M
A498 = test: NCI single-dose growth inhibition screen; format: cell-based, human; conditions: single dose 10^−5 M; for inhibition at 10 µM: Homo sapiens, A498, Renal Cancer A498
LOX IMVI = test: NCI single-dose growth inhibition screen; format: cell-based, human; conditions: Melanoma LOX IMVI, single dose 10^−5 M; for inhibition at 10 µM: Homo sapiens, LOX IMVI
SR = test: NCI single-dose growth inhibition screen; format: cell-based; conditions: Homo sapiens; Leukemia SR; single dose 10^−5 M
SF-268 = test: NCI single-dose growth inhibition screen; format: cell-based; conditions: Homo sapiens; CNS Cancer SF-268; single dose 10^−5 M
CAKI-1 = test: NCI single-dose growth inhibition screen; format: cell-based; conditions: Homo sapiens; Renal Cancer CAKI-1; single dose 10^−5 M
NCI-H23 = test: NCI single-dose growth inhibition screen; format: cell-based; conditions: Homo sapiens; Non-Small Cell Lung Cancer NCI-H23; single dose 10^−5 M
A549/ATCC = test: NCI single-dose growth inhibition screen; format: cell-based; conditions: Homo sapiens; Non-Small Cell Lung Cancer A549/ATCC; single dose 10^−5 M
[1] = tested on: P. aeruginosa ATCC 27,853; test: Antibacterial screening, agar cup diffusion method; format: cell-based; conditions: Pseudomonas aeruginosa, ATCC27; Gram –ve strain; read-out: Minimum inhibitory concentrations (MIC, µM) P. aeruginosa ATCC 27,853
Method: (§1) Anti-bacterial activity of the recently synthesized compounds 3a-k was evaluated at AUMC (Assiut University Mycological Centre), Assiut, Egypt. Assays were done against Gram-negative strains of K. pneumoniae (ATCC 100310, E. coli (ATCC 25922), Pseudomonas aeruginosa (ATCC 27853) and the Gram-positive S. aureus (ATCC 6538) strain utilizing standard agar cup diffusion method. The isolates from the four bacterial species examined were kept in TSB (Trypticase Soya Broth, Becton and Dickinson) with 10% glycerol at -70 °C and then subcultured on TSA (Trypticase Soya Agar, Becton and Dickinson) and TSB for 24 h at 37 °C former to inoculation. Bacterial isolates were then plated on sterile petri plates with 1 × 10^8 CFU/mL (0.5 McFarland turbidity) and 20 mL of Mueller Hinton Agar media (Oxoid) was then loaded. To ensure that the microorganisms were evenly dispersed, the plates were gently rotated before being left to harden on a level surface. Four equally spaced spherical-shaped wells (10 mm diameter) were painstakingly drilled using a sterilized cork bore after media solidification. All tested compounds under test underwent two-fold serial dilutions in a sequential manner. Three replications of 100 µL of each concentration were added to a well using a micropipette. Plates were then incubated for 24-hour at 37 °C. The average of the inhibition zones was then calculated. To determine the MICs, the natural logarithm of each diluted test substance’s concentration was plotted against the average area of the related inhibition zone. Following that, a regression line was created and the intercept on the ‘ln concentration” axis was determined, and the antilogarithm was calculated to indicate the MIC value[34],[63].

OVCAR-8 = test: NCI single-dose growth inhibition screen; format: cell-based; conditions: Homo sapiens; Ovarian Cancer OVCAR-8; single dose 10^−5 M
DU-145 = test: NCI single-dose growth inhibition screen; format: cell-based; conditions: Homo sapiens; Prostate Cancer DU-145; single dose 10^−5 M
OVCAR-4 = test: NCI single-dose growth inhibition screen; format: cell-based; conditions: Homo sapiens; Ovarian Cancer OVCAR-4; single dose 10^−5 M
HOP-92 = test: NCI single-dose growth inhibition screen; format: cell-based; conditions: Homo sapiens; Non-Small Cell Lung Cancer HOP-92; single dose 10^−5 M
HOP-62 = test: NCI single-dose growth inhibition screen; format: cell-based; conditions: Homo sapiens; Non-Small Cell Lung Cancer HOP-62; single dose 10^−5 M
SK-MEL-5 = test: NCI single-dose growth inhibition screen; format: cell-based, human; conditions: single dose 10^−5 M; for inhibition at 10 µM: Homo sapiens, SK-MEL-5, Melanoma SK-MEL-5
SN12C = test: NCI single-dose growth inhibition screen; format: cell-based; conditions: Homo sapiens; Renal Cancer SN12C; single dose 10^−5 M
ACHN = test: NCI single-dose growth inhibition screen; format: cell-based; conditions: Homo sapiens; Renal Cancer ACHN; single dose 10^−5 M
RPMI-8226 = test: NCI single-dose growth inhibition screen; format: cell-based; conditions: Homo sapiens; Leukemia RPMI-8226; single dose 10^−5 M
PC-3 = test: NCI single-dose growth inhibition screen; format: cell-based; conditions: Homo sapiens; Prostate Cancer PC-3; single dose 10^−5 M
[2] = tested on: K. pneumoniae ATCC 10,031; test: Antibacterial screening, agar cup diffusion method; format: cell-based; conditions: read-out: Minimum inhibitory concentrations (MIC, µM) K. pneumoniae ATCC 10,031
Method: as §1

S. aureus ATCC 6538 = test: Antibacterial screening, agar cup diffusion method; format: cell-based; conditions: Staphylococcus aureus, ATCC6538; Gram + ve strain; read-out: Minimum inhibitory concentrations (MIC, µM) S. aureus ATCC 6538
UACC-257 = test: NCI single-dose growth inhibition screen; format: cell-based; conditions: Homo sapiens; Melanoma UACC-257; single dose 10^−5 M
NCI-H460 = test: NCI single-dose growth inhibition screen; format: cell-based; conditions: Homo sapiens; Non-Small Cell Lung Cancer NCI-H460; single dose 10^−5 M
786-0 = test: NCI single-dose growth inhibition screen; format: cell-based; conditions: Homo sapiens; Renal Cancer 786-0; single dose 10^−5 M
NCI-H322M = test: NCI single-dose growth inhibition screen; format: cell-based; conditions: Homo sapiens; Non-Small Cell Lung Cancer NCI-H322M; single dose 10^−5 M
CCRF-CEM = test: NCI single-dose growth inhibition screen; format: cell-based; conditions: Homo sapiens; Leukemia CCRF-CEM; single dose 10^−5 M
MALME-3 M = test: NCI single-dose growth inhibition screen; format: cell-based; conditions: Homo sapiens; Melanoma MALME-3 M; single dose 10^−5 M
MOLT-4 = test: NCI single-dose growth inhibition screen; format: cell-based; conditions: Homo sapiens; Leukemia MOLT-4; single dose 10^−5 M
human melanoma LOX IMVI = test: cells; conditions: for IC50: read-out: In vitro cytotoxicity (IC50) LOX IMVI (µM ± SEM)
HS 578T = test: NCI single-dose growth inhibition screen; format: cell-based; conditions: Homo sapiens; Breast Cancer HS 578T; single dose 10^−5 M
E. coli ATCC 25,922 = test: Antibacterial screening, agar cup diffusion method; format: cell-based; conditions: read-out: Minimum inhibitory concentrations (MIC, µM) E. coli ATCC 25,922
[3] = Klebsiella pneumoniae, ATCC10, Gram –ve strain
[4] = Escherichia coli, ATCC25, Gram –ve strain

Work on O=C(O)c1cn(C2CC2)c2cc(N3CCN(C(=O)CCCN4C(=O)SC(=Cc5ccccc5)C4=O)CC3)c(F)cc2c1=O [3a, 7-[4-[4-[5-benzylidene-2,4-dioxo-thiazolidin-3-yl]butanoyl]piperazin-1-yl]-1-cyclopropyl-6-fluoro-4-oxo-quinoline-3-carboxylic acid] yielded an inhibition at 10 µM (MDA-MB231) of 25.2%, an inhibition at 10 µM (EKVX) of under 0% and an inhibition at 10 µM (A498) of 41.4%. For the same molecule, the inhibition at 10 µM (LOX IMVI) was 41.4%, the “Growth Inhibition (%)” value (LOX IMVI) was 53.25% and 53.3% and the inhibition at 10 µM (SR) was 29.9%. It also gave an inhibition at 10 µM (SF-268) of 12.4%, an inhibition at 10 µM (CAKI-1) of 10.9% and an inhibition at 10 µM (NCI-H23) of 10.2%. For the same molecule, the inhibition at 10 µM (A549/ATCC) was 14.2%, the MIC [1] was over 20 µM and the inhibition at 10 µM (OVCAR-8) was 15.4%. It also gave an inhibition at 10 µM (DU-145) of under 0%, an inhibition at 10 µM (OVCAR-4) of 2.5% and an inhibition at 10 µM (HOP-92) of under 0%. The inhibition at 10 µM (HOP-62) was under 0%, the inhibition at 10 µM (SK-MEL-5) was 24.6% and the inhibition at 10 µM (SN12C) was 2.6%. The inhibition at 10 µM (ACHN) was 14.5%, the melting point was 238 °C and the inhibition at 10 µM (RPMI-8226) was 11.4%. For the same molecule, the inhibition at 10 µM (PC-3) was under 0%, the MIC ([2]; Gram –ve strain) was 0.22 µM (≈ 0.133 µg/mL) and the MIC [2, 3] was 0.13 to 0.8 µM (≈ 0.0786 to 0.484 µg/mL). The MIC (S. aureus ATCC 6538) was over 20 µM, the inhibition at 10 µM (UACC-257) was 21.1% and the inhibition at 10 µM (NCI-H460) was 3.7%. It also gave an inhibition at 10 µM (786-0) of 21.2%, an inhibition at 10 µM (NCI-H322M) of 9.4% and an inhibition at 10 µM (CCRF-CEM) of 9.8%. The inhibition at 10 µM (MALME-3 M) was 30.4%, the inhibition at 10 µM (MOLT-4) was 12.6% and the viability at 0.4 µM (human melanoma LOX IMVI) was 77.9%. It also gave a viability at 1.6 µM (human melanoma LOX IMVI) of 69.2%, a viability at 25 µM (human melanoma LOX IMVI) of 48.8% and a viability at 100 µM (human melanoma LOX IMVI) of 40.4%. The IC50 (human melanoma LOX IMVI) was 26.7 ± 1.5 µM, the inhibition at 10 µM (HS 578T) was 8.8% and the MIC (E. coli ATCC 25,922; [4]) was 0.2 µM (≈ 0.121 µg/mL).

O=C(O)c1cn(C2CC2)c2cc(N3CCN(C(=O)CCCN4C(=O)SC(=Cc5cccc6ccccc56)C4=O)CC3)c(F)cc2c1=O [3j, 1-cyclopropyl-6-fluoro-7-[4-[4-[5-(1-naphthylmethylene)-2,4-dioxo-thiazolidin-3-yl]butanoyl]piperazin-1-yl]-4-oxo-quinoline-3-carboxylic acid] gave an inhibition at 10 µM (MDA-MB231) of 25.2%, an inhibition at 10 µM (EKVX) of 9.1% and an inhibition at 10 µM (A498) of 50.9%. The “Growth Inhibition (%)” value (A498; Renal Cancer A498) was 50.9%, the inhibition at 10 µM (LOX IMVI) was 38.5% and the “Growth Inhibition (%)” value (LOX IMVI) was 38.5%. The inhibition at 10 µM (SR) was 14.1%, the inhibition at 10 µM (SF-268) was 29.1% and the inhibition at 10 µM (CAKI-1) was 18%. For the same molecule, the inhibition at 10 µM (NCI-H23) was 13.1%, the inhibition at 10 µM (A549/ATCC) was 9.3% and the MIC [1] was over 20 µM. For the same molecule, the inhibition at 10 µM (OVCAR-8) was 9%, the inhibition at 10 µM (DU-145) was 21.9% and the inhibition at 10 µM (OVCAR-4) was 16.4%. The inhibition at 10 µM (HOP-92) was 13.3%, the inhibition at 10 µM (HOP-62) was 15.1% and the inhibition at 10 µM (SK-MEL-5) was 46.1%. For the same molecule, the “Growth Inhibition (%)” value (SK-MEL-5; Melanoma SK-MEL-5) was 46.1%, the inhibition at 10 µM (SN12C) was 24.1% and the inhibition at 10 µM (ACHN) was 11.5%. The melting point was 219 °C, the inhibition at 10 µM (RPMI-8226) was 6.1% and the inhibition at 10 µM (PC-3) was under 0%. For the same molecule, the MIC [2, 3] was over 20 µM, the MIC (S. aureus ATCC 6538) was over 20 µM and the inhibition at 10 µM (UACC-257) was 19.1%. The inhibition at 10 µM (NCI-H460) was 3.9%, the inhibition at 10 µM (786-0) was 18.5% and the inhibition at 10 µM (NCI-H322M) was 26.6%. It also gave an inhibition at 10 µM (CCRF-CEM) of under 0%, an inhibition at 10 µM (MALME-3 M) of 13.1% and an inhibition at 10 µM (MOLT-4) of 17.5%. For the same molecule, the viability at 0.4 µM (human melanoma LOX IMVI) was 86.5%, the viability at 1.6 µM (human melanoma LOX IMVI) was 79.4% and the viability at 25 µM (human melanoma LOX IMVI) was 61.5%. For the same molecule, the viability at 100 µM (human melanoma LOX IMVI) was 48.5%, the IC50 (human melanoma LOX IMVI) was 110 ± 6.23 µM and the inhibition at 10 µM (HS 578T) was 30.2%. For the same molecule, the MIC (E. coli ATCC 25,922; [4]) was 1.94 to 2.6 µM (≈ 1.27 to 1.7 µg/mL) and the MIC (E. coli ATCC 25,922; Gram –ve strain) was 2.60 µM (≈ 1.7 µg/mL).

Reference: PMC11480511 (Scientific Reports, 2024)
